From patent US7807368B2, “Cyclin-dependent kinase inhibitors as targets for opiod growth factor treatment” (priority 2006, dated 2010)

Assays:
Assay type in all cases: cell-based, human
SCC-1 cells [1] = assay: siRNA knockdown of OGFr, growth of SCC-1 cells
Experimental: siRNA knockdown of OGFr. […] For transfection, 5×10^4 cells per well were seeded in 6-well plates containing 1 ml of serum-containing media without antibiotics. In each well, 20 nM OGFr-siRNA or control siRNA solutions in serum-free media were added. Cells were incubated for 4 h at 37° C. prior to the addition of OGF. Cultures were incubated an additional 20 h, and then 1 ml fresh complete media either lacking or containing OGF was added. […] Two independent experiments were conducted. The control siRNAs were purchased from Ambion.

p16 [2] = assay: Western blot of p16, other CKIs and Cdk4 in SCC-1 cells; conditions: for p16 expression: synchronized SCC-1 cells, 3 h, 10^-6 M OGF, 10^-5 M naloxone
Experimental: Synchronized cells (˜2×10^6) from each treatment were solubilized in 200 μl RIPA buffer (1×PBS, 10 μM IGEPAL, 1 mg/ml SDS, 5 mg/ml deoxycholic acid), containing protease and phosphatase inhibitors (2 μg/ml aprotinin, 3 mg/ml phenylmethyl sulfonyl fluoride (PMSF), 1 mM sodium orthovanidate, 1 μM okadaic acid). Total protein concentrations were measured using the DC protein assay kit (Bio-Rad Laboratories, Hercules, Calif.). Equal amounts of protein (40 μg) were subjected to 10% SDS-PAGE followed by transfer of proteins onto polyvinylidene difluoride (Millipore, Billerica, Mass.) using standard protocols. The following antibodies were purchased from commercial sources: phospho-Rb (Ser795), phospho-Rb (Ser807/811) (Cell Signaling Technology, Beverly, Mass.); phospho-Rb (Thr821) (Biosource, Camarillo, Calif.); Cdk4, cyclin D1, p15, p16, p18, p19 (Santa Cruz Biotechnology, Santa Cruz, Calif.); total Rb, p21, p27 (BD PharMingen, San Diego, Calif.); β-actin (Clone AC-15, Sigma). The following dilutions of primary antibodies were used to detect respective proteins. 1:200 phospho-Rb (Ser795), 1:200 phospho-Rb (Ser807/811); 1:200 phospho-Rb (Thr821); 1:200 Cdk4, 1:200 cyclin D1, 1:100 p16; 1:200 total Rb, 1:200 p21, 1:100 p27. Membranes were probed with secondary anti-rabbit or anti-mouse horseradish peroxidase-conjugated antibodies (GE Healthcare-Amersham Biosciences, Piscataway, N.J.); blots were developed using a chemiluminescence Western blotting detection system (GE Healthcare-Amersham Biosciences).
To determine equal loading of total protein samples, blots were reprobed with monoclonal antibody against β-actin at a dilution of 1:2000. If necessary, membranes were stripped in stripping buffer (62.5 mM Tris-HCl and 100 mM β-mercaptoethanol/2% SDS, pH 6.7) at 50° C. before being re-probed. Means and SE were determined from 3 or more independent experiments.
(§1) To quantify expression levels or kinase activity, the optical density of each band was determined by densitometry and analyzed by QuickOne (Bio-Rad Laboratories). Each value was normalized to β-actin from the same blot. To report the changes due to OGF treatment, the fold increase was calculated by dividing the normalized value from the OGF treated samples by the normalized value of control samples at each time point; thus, increases due to OGF have values greater than one, and decreases due to OGF have values less than one.
(§2) The p16-targeted siRNAs (antisense:5′ […]-3′; sense (SEQ ID NO:5): 5′ […]-3′(SEQ ID NO:6) were obtained as ready-annealed, purified duplex probes (Invitrogen, Carlsbad, Calif.). For transfection, 2×10^5 cells per well were seeded in 6-well plates containing 1 ml of serum-free media without antibiotics. In each well, 20 nM of p16-siRNA or control siRNA solutions in serum-free media were added. Cells were incubated for 4 h at 37° C. prior to the addition of OGF. Cultures were incubated for additional 20 h, and then 1 ml fresh complete media either lacking or containing OGF was added. At the indicated time points, cells were collected for growth curves or Western blotting. Three or more independent experiments were conducted. The control siRNAs were purchased from Ambion.

p21 = assay: Western blot of p21, p27 and Cdk2 in BxPC-3 cells; conditions: synchronized BxPC-3 cells, 9 hours, 10^-6 M OGF, 10^-5 M naloxone
Experimental: (§3) Synchronized cells (2×10^6) from each treatment were solubilized in 200 μl RIPA buffer (1×PBS, 10 μM IGEPAL, 1 mg/ml SDS, 5 mg/ml deoxycholic acid), containing protease and phosphatase inhibitors (2 μg/ml aprotinin, 3 mg/ml phenylmethyl sulfonyl fluoride, 1 mM sodium orthovanidate, 1 μM okadaic acid). Total protein concentrations were measured using the DC protein assay kit (Bio-Rad Laboratories, Hercules, Calif.). Equal amounts of protein (40 μg) were subjected to 10% SDS-PAGE followed by transfer of proteins onto polyvinylidene difluoride (Millipore, Billerica, Mass.) using standard protocols.
The following antibodies were purchased from commercial sources: phospho-Rb (Ser795), phospho-Rb (Ser807/811) (Cell Signaling Technology, Beverly, Mass.); Cdk2, p57 (Santa Cruz Biotechnology, Santa Cruz, Calif.); p21, p27, total Rb (BD PharMingen, San Diego, Calif.); β-actin (Clone AC-15, Sigma-Aldrich).
Membranes were probed with secondary anti-rabbit or anti-mouse horseradish peroxidase-conjugated antibodies (GE Healthcare-Amersham Biosciences, Piscataway, N.J.), and developed using a chemiluminescence Western blotting detection system.
To determine equal loading of total protein samples, blots were re-probed with monoclonal antibody against β-actin at a dilution of 1:2000. If necessary, membranes were processed in stripping buffer (62.5 mM Tris-HCI and 100 mM β-mercaptoethanol/2% SDS, pH 6.7) at 50° C. before being re-probed.
as §1, with “treatment, we calculated” for “treatment,”, “increase” for “increase was calculated”, “one. For all Western blot analyses, 3 or more independent experiments were performed.” for “one.”
The p21-targeted siRNAs were obtained from Santa Cruz Biotechnology, and negative control siRNAs were purchased from Ambion (Ambion, Inc., Austin, Tex.). For transfection, 2×10^5 cells per well were seeded in 6-well plates containing 1 ml of media without antibiotics. For each well, 1 μl of siRNA stock (20 μM) was mixed with 175 μl of serum-free media. Two μl of Oligofectamine reagent (Invitrogen, Carlsbad, Calif.) was added to prewashed cells in each well, making the final concentration for siRNA approximately 20 nM. Cells were incubated for 4 hours at 37° C. prior to the addition of OGF. Eighteen hours later, 1 ml fresh complete media with or without OGF was added to the cultures; media and OGF were replaced daily. At the indicated time points, cells were collected for growth curves or Western blotting.

SCC-1 cells [3] = assay: Growth of SCC-1 cells transfected with p16 siRNA or negative control siRNA; conditions: SCC-1 cells transfected with p16 siRNA, exposed to OGF for 96 h
Experimental: as §2

p16 [4] = assay: Western blot of p16 in CAL-27 cells; conditions: CAL-27 cells transfected with p16 siRNA
Experimental: (§4) The SCC-1 (UM-SCC-1) cell line was obtained from the University of Michigan Cancer Research Laboratory, and CAL-27 and SCC-4 cells were obtained from the American Type Culture Collection (Manassas, Va.). SCC-1 and CAL-27 cells were cultured in DMEM media, whereas SCC-4 cells were grown in 1:1 Hams F-12 DMEM media. All media was supplemented with 10% fetal bovine serum (HyClone, Logan, Utah), 1.2% sodium bicarbonate, and 5000 units/ml penicillin, 5 μg/ml streptomycin and 10 μg/ml neomycin. OGF was purchased from Sigma-Aldrich (St. Louis, Mo.), dissolved in sterile water, and used at a final concentration of 10^−6 M.
as §3, with “(˜2×10^6)” for “(2×10^6)”, “fluoride (PMSF),” for “fluoride,”, “protocols. […]” for “protocols.”

p16 [5] = assay: Western blot of p16 in SCC-4 cells; conditions: SCC-4 cells transfected with p16 siRNAs, 72 h
Experimental: as §4
as §3, with “(˜2×10^6)” for “(2×10^6)”, “fluoride (PMSF),” for “fluoride,”, “protocols. […]” for “protocols.”

## O=C1CC[C@@]2(O)[C@H]3Cc4ccc(O)c5c4[C@@]2(CCN3CC2CC2)[C@H]1O5 [NTX]
SCC-1 cells [1]; SCC-1 cells subjected to OGFr-siRNA, 10^-6 M
  effect on growth of OGFr-siRNA cultures: no further effects
SCC-1 cells [1]; control siRNA-exposed SCC-1 cells, 10^-6 M, 96 h
  increase in number of cells: 27%
SCC-1 cells [1]; wt SCC-1 cells, 10^-6 M, 96 h
  increase in number of cells: 24%

## C=CCN1CC[C@]23c4c5ccc(O)c4O[C@H]2C(=O)CC[C@@]3(O)[C@H]1C5 [naloxone]
p16 [2]
  p16 expression: no effect
p16 [2]; listed as NAL
  p16 expression: no change
p21
  p21 expression: no effect
p21; listed as NAL
  p21 expression: no change

## OGFr-siRNA: OGFr-targeted siRNA duplex (SEQ ID NO:3 and 4) from Ambion (chain 1 UAGAAACUCAGGUUUGGCG; chain 2 CGCCAAACCUGAGUUUCUA; listed as RNA, chemistry not given here)
SCC-1 cells [1]; 20 nM siRNA, 96 h
  more cells than wt and control siRNA-treated cultures: approximately 19%

## p16 siRNA: p16-targeted siRNA duplex (SEQ ID NO:5 and 6) from Invitrogen (chain 1 ACACCGCUUCUGCCUUUUCUU; chain 2 GAAAAGGCAGAAGCGGUGUUU; chemistry not given here)
p16 [2]; SCC-1 cells transfected with p16 siRNA, after 72 h
  p16 protein level compared to untransfected cells: significantly reduced levels
SCC-1 cells [3]
  effect of p16 knockdown on OGF growth inhibition: blocked OGF inhibitory action
p16 [4]
  p16 levels relative to control cells: significantly reduced p16 levels
p16 [5]
  p16 protein level compared to control cells: significantly reduced levels
